According to patent US10597388B2, “Pyridazinone herbicides” (FMC CORPORATION, priority 2014, dated 2020):

Experiments:
Type in all cases: in vivo
[1] = test system: johnsongrass (Sorghum halepense); test: Test C greenhouse herbicide test, pre- and postemergence
Description: (§1) Seeds of plant species selected from blackgrass (Alopecurus myosuroides), ryegrass, Italian (Italian ryegrass, Lolium multiflorum), wheat (winter wheat, Triticum aestivum), galium (catchweed bedstraw, Galium aparine), corn (Zea mays), large crabgrass, large (large crabgrass, Digitaria sanguinalis), foxtail, giant (giant foxtail, Setaria faberii), johnsongrass (Sorghum halepense), lambsquarters (Chenopodium album), morningglory (Ipomoea coccinea), nutsedge, yellow (yellow nutsedge, Cyperus esculentus), pigweed (Amaranthus retroflexus), ragweed (common ragweed, Ambrosia elatior), soybean (Glycine max), barnyardgrass (Echinochloa crus-galli), oilseed rape (Brassica napus), waterhemp (common waterhemp, Amaranthus rudis), and velvetleaf (Abutilon theophrasti) were planted into a blend of loam soil and sand and treated preemergence with test chemicals formulated in a non-phytotoxic solvent mixture which included a surfactant.
(§2) At the same time, plants selected from these crop and weed species and also chickweed (common chickweed, Stellaria media), kochia (Kochia scoparia), and oat, wild (wild oat, Avena fatua), were planted in pots containing Redi-Earth® planting medium (Scotts Company, 14111 Scottslawn Road, Marysville, Ohio 43041) comprising spaghnum peat moss, vermiculite, wetting agent and starter nutrients and treated with postemergence applications of test chemicals formulated in the same manner. Plants ranged in height from 2 to 18 cm (1- to 4-leaf stage) for postemergence treatments. Treated plants and controls were maintained in a greenhouse for 13 to 15 d, after which time all species were compared to controls and visually evaluated. Plant response ratings, summarized in Table C, are based on a scale of 0 to 100 where 0 is no effect and 100 is complete control. A dash (-) response means no test result.

[2] = test system: nutsedge, yellow (yellow nutsedge, Cyperus esculentus); test: as above
Description: as §1, §2

soybean (Glycine max) = test: as above
Description: as §1, §2

[3] = test system: sedge, umbrella (small-flower umbrella sedge, Cyperus difformis); test: Test B flooded paddy test; settings: 250 g ai/ha, Flood; visual rating on scale of 0 to 100 where 0 is no effect and 100 is complete control; 13 to 15 d after treatment
Outline: (§3)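 Plants grown to the 2-leaf stage. At treatment, pots were flooded to 3 cm above the soil, compound was applied directly to the paddy water, and that depth was held throughout. After 13 to 15 d in the greenhouse, response was rated visually against controls on a 0 (no effect) to 100 (complete control) scale.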

[4] = test system: barnyardgrass (Echinochloa crus-galli); test: Test B flooded paddy test; settings: 250 g ai/ha, Flood; visual rating on scale of 0 to 100 where 0 is no effect and 100 is complete control; 13 to 15 d after treatment
Outline: as §3

rice (Oryza sativa) = test: Test B flooded paddy test; settings: 250 g ai/ha, Flood; visual rating on scale of 0 to 100 where 0 is no effect and 100 is complete control; 13 to 15 d after treatment
Outline: as §3

[5] = test system: ducksalad (Heteranthera limosa); test: Test B flooded paddy test; settings: 250 g ai/ha, Flood; visual rating on scale of 0 to 100 where 0 is no effect and 100 is complete control; 13 to 15 d after treatment
Outline: as §3

[6] = test system: galium (catchweed bedstraw, Galium aparine); test: Test A greenhouse herbicide test, postemergence
Outline: (§4)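 Pot-grown plants (loam soil/sand blend), 2–10 cm tall at the one- to two-leaf stage, received postemergence sprays of formulated test chemical. After about 10 d in the greenhouse, injury was rated visually against untreated controls on a 0 (no effect) to 100 (complete control) scale.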

[7] = test system: blackgrass (Alopecurus myosuroides); test: Test A greenhouse herbicide test, postemergence
Outline: as §4

kochia (Kochia scoparia) = test: Test C greenhouse herbicide test, postemergence
Outline: (§5)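 Plants grown in potting mix of peat moss, vermiculite, wetting agent and starter nutrients were sprayed postemergence at 2 to 18 cm height (1- to 4-leaf stage). After 13 to 15 d in the greenhouse, injury was visually rated against untreated controls on a 0–100 scale (0 no effect, 100 complete control).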

[8] = test system: oat, wild (wild oat, Avena fatua); test: Test C greenhouse herbicide test, postemergence
Outline: as §5

[9] = Preemergence, 31 g ai/ha, scale 0 to 100, 0 is no effect, 100 is complete control
[10] = Preemergence, 62 g ai/ha, scale 0 to 100, 0 is no effect, 100 is complete control
[11] = Preemergence, 125 g ai/ha, scale 0 to 100, 0 is no effect, 100 is complete control
[12] = Preemergence, 250 g ai/ha, scale 0 to 100, 0 no effect, 100 complete control
[13] = 125 g ai/ha, 0 to 100 scale where 0 is no effect and 100 is complete control
[14] = 500 g ai/ha, visual rating after approx. 10 d, 0 to 100 scale (0 no effect, 100 complete control)
[15] = Postemergence, 31 g ai/ha, scale 0 to 100 (0 no effect, 100 complete control)
[16] = Postemergence, 62 g ai/ha, 0 to 100 scale (0 no effect, 100 complete control)
[17] = Postemergence, 250 g ai/ha, scale 0 to 100, 0 no effect, 100 complete control, 13 to 15 d
[18] = postemergence, 125 g ai/ha, scale 0 to 100, 0 no effect, 100 complete control
[19] = 125 g ai/ha, 0 to 100 scale, 0 no effect, 100 complete control

Structure (SMILES)	Plant response rating, Johnsongrass [1, 9]	Plant response rating, Johnsongrass [1, 10]	Plant response rating, Johnsongrass [1, 11]	Johnsongrass plant response rating [1, 12]	Plant response rating, Nutsedge, Yellow [2, 9]	Plant response rating, Nutsedge, Yellow [2, 10]	Plant response rating, Nutsedge, Yellow [2, 11]	Nutsedge, Yellow plant response rating [2, 12]	Plant response rating, Soybean (soybean (Glycine max); [9])	Plant response rating, Soybean (soybean (Glycine max); [10])	Plant response rating, Soybean (soybean (Glycine max); [11])	Soybean plant response rating (soybean (Glycine max); [12])	Plant response rating, Sedge, Umbrella [3]	Plant response rating, Barnyardgrass [4]	Plant response rating, Rice (rice (Oryza sativa))	Plant response rating, Ducksalad [5]	Plant response rating, Galium [6, 13]	Plant response rating, Galium [6, 14]	Plant response rating, Blackgrass [7, 13]	Plant response rating, Blackgrass [7, 14]	also measured
CCC(=O)Oc1c(OC)nn(C)c(=O)c1-c1c(C)sc2ccc(Cl)cc12 [Compound 131]	0	0	0	20	10	35	65	75	0	0	0	0	0	0	0	0	70	100	30	50	–
CCC(=O)Oc1c(C)nn(C)c(=O)c1-c1ccc(Br)c2ccccc12 [Compound 134]	0	5	5	5	30	45	95	90	40	45	65	75	0	0	0	0	100	100	60	70	Plant response rating, Johnsongrass [1, 15]: 10; Johnsongrass plant response rating [1, 16]: 10; Plant response rating, Johnsongrass [1, 17]: 25; Johnsongrass plant response rating [1, 18]: 5; Plant response rating, Nutsedge, Yellow [2, 15]: 75; Nutsedge, Yellow plant response rating [2, 16]: 80; Plant response rating, Nutsedge, Yellow [2, 17]: 90; Nutsedge, Yellow plant response rating [2, 18]: 95; Plant response rating, Soybean (soybean (Glycine max); [15]): 75; Soybean plant response rating (soybean (Glycine max); [16]): 70; Plant response rating, Soybean (soybean (Glycine max); [17]): 85; Soybean plant response rating (soybean (Glycine max); [18]): 70; Plant response rating, Kochia (kochia (Kochia scoparia); [15]): 95; Kochia plant response rating (kochia (Kochia scoparia); [16]): 100; Plant response rating, Kochia (kochia (Kochia scoparia); [17]): 100; Kochia plant response rating (kochia (Kochia scoparia); [18]): 100; Plant response rating, Oat, Wild [8, 15]: 90; Oat, Wild plant response rating [8, 16]: 90; Plant response rating, Oat, Wild [8, 17]: 95; Oat, Wild plant response rating [8, 18]: 95
COC(=O)Oc1c(OC)nn(C)c(=O)c1-c1c(C)ccc2ccccc12 [Compound 136]	5	5	20	10	5	35	70	80	10	10	10	20	0	0	0	0	100	100	60	90	Plant response rating, Johnsongrass [1, 15]: 5; Johnsongrass plant response rating [1, 16]: 5; Plant response rating, Johnsongrass [1, 17]: 5; Johnsongrass plant response rating [1, 18]: 5; Plant response rating, Nutsedge, Yellow [2, 15]: 15; Nutsedge, Yellow plant response rating [2, 16]: 55; Plant response rating, Nutsedge, Yellow [2, 17]: 85; Nutsedge, Yellow plant response rating [2, 18]: 75; Plant response rating, Soybean (soybean (Glycine max); [15]): 5; Soybean plant response rating (soybean (Glycine max); [16]): 10; Plant response rating, Soybean (soybean (Glycine max); [17]): 15; Soybean plant response rating (soybean (Glycine max); [18]): 10; Plant response rating, Kochia (kochia (Kochia scoparia); [15]): 95; Kochia plant response rating (kochia (Kochia scoparia); [16]): 95; Plant response rating, Kochia (kochia (Kochia scoparia); [17]): 100; Kochia plant response rating (kochia (Kochia scoparia); [18]): 100; Plant response rating, Oat, Wild [8, 15]: 50; Oat, Wild plant response rating [8, 16]: 75; Plant response rating, Oat, Wild [8, 17]: 90; Oat, Wild plant response rating [8, 18]: 85
Cc1nn(C)c(=O)c(-c2ccc(Cl)c3ccccc23)c1O [Compound 139]	5	35	35	25	65	60	85	90	25	35	60	80	0	0	0	0	100	100	60	90	Plant response rating, Johnsongrass [1, 15]: 5; Johnsongrass plant response rating [1, 16]: 5; Plant response rating, Johnsongrass [1, 17]: 25; Johnsongrass plant response rating [1, 18]: 15; Plant response rating, Nutsedge, Yellow [2, 15]: 55; Nutsedge, Yellow plant response rating [2, 16]: 75; Plant response rating, Nutsedge, Yellow [2, 17]: 85; Nutsedge, Yellow plant response rating [2, 18]: 70; Plant response rating, Soybean (soybean (Glycine max); [15]): 45; Soybean plant response rating (soybean (Glycine max); [16]): 55; Plant response rating, Soybean (soybean (Glycine max); [17]): 60; Soybean plant response rating (soybean (Glycine max); [18]): 65; Plant response rating, Kochia (kochia (Kochia scoparia); [15]): 95; Kochia plant response rating (kochia (Kochia scoparia); [16]): 100; Plant response rating, Kochia (kochia (Kochia scoparia); [17]): 100; Kochia plant response rating (kochia (Kochia scoparia); [18]): 100; Plant response rating, Oat, Wild [8, 15]: 90; Oat, Wild plant response rating [8, 16]: 90; Plant response rating, Oat, Wild [8, 17]: 90; Oat, Wild plant response rating [8, 18]: 90
CC(=O)Oc1c(Cl)nn(C)c(=O)c1-c1c(C)sc2ccc(C(F)(F)F)cc12 [Compound 152]	0	0	0	5	5	20	55	85	0	5	5	10	0	0	0	0	–	70	–	30	Plant response rating, Galium [6, 19]: 60; Plant response rating, Blackgrass [7, 19]: 20
